Experimental data as given in patent publication US11084976B2, “Method and process of use of binary compositions for acidizing subterranean formations” (Halliburton Energy Services, Inc., priority 2018, dated 2021).
In brackets after ≈: the same amount, converted by molar mass.

What was measured:
[1] = Solubility of PMIDA in water and HCl (saturation concentrations); format: physicochemical; conditions: for solubility thermodynamic: water, thermodynamic from solid, H2O
From the text: In certain embodiments, the organic compound comprising a phosphonoalkyl moiety is at least partially solubilized in the organic or mineral acid. As used herein, the term “at least partially solubilized,” and grammatical variants thereof, with reference to the organic compound comprising a phosphonoalkyl moiety in the organic or mineral acid refers to dissolution of at least about 2% weight per volume (w/v) of the organic compound comprising a phosphonoalkyl moiety in the organic or mineral acid at room temperature. As used herein, the term “room temperature” refers to about 15° C. to about 25° C. The remaining excess organic compound comprising a phosphonoalkyl moiety may be suspended in the organic or mineral acid while it is undergoing dynamic fluid flow at room temperature. As temperatures increase (e.g., as the treatment fluid is introduced into a subterranean formation and encounters downhole temperatures), the solubility of the organic compound comprising a phosphonoalkyl moiety in the organic or mineral acid may increase. Indeed, the solubility of the organic compound comprising a phosphonoalkyl moiety increases as a function of acid concentration, and temperature.

[2] = PMIDA added to base solubility test; format: physicochemical; conditions: base added to PMIDA in solid form or high concentrated slurry
Method: During the testing, however, it was observed that adding the base to the PMIDA in its solid form, or in a high concentrated slurry, was unsuccessful.
The following procedure was followed to generate several samples. First, a quantity of a known base in water was prepared. Next, PMIDA was added to the solution at a rate slow enough to ensure that no boiling of the fluid occurred. As discussed above, it is believed that the addition of the PMIDA to the base may result in an exothermic reaction that may aid in additional solubilizing of PMIDA due to the increase in the fluid temperature. After complete addition and thorough mixing, the fluid was cooled, and the volume, weight, and pH were measured. Finally, the concentration and density of the samples were determined.

O=C(O)CN(CC(=O)O)CP(=O)(O)O [PMIDA, N-(phosphonomethyl)iminodiacetic acid]
Solubility Average ([1]; Atm., 7.5% HCl, 200° F.): 10.00 w/v %
solubility thermodynamic ([1]; 37.8 °C, 200 psi, 100° F.): 18.3 mg/mL (≈ 80.6 mM)
solubility thermodynamic ([1]; 37.8 °C, Atm., 100° F.): 22.6 mg/mL (≈ 99.5 mM)
solubility thermodynamic ([1]; 65.6 °C, 200 psi, 150° F.): 28.7 mg/mL (≈ 126 mM)
solubility thermodynamic ([1]; 65.6 °C, Atm., 150° F.): 31.9 mg/mL (≈ 140 mM)
solubility thermodynamic ([1]; 93.3 °C, 200 psi, 200° F.): 51.1 mg/mL (≈ 225 mM)
solubility thermodynamic ([1]; 93.3 °C, Atm., 200° F.): 47.9 mg/mL (≈ 211 mM)
Solubility in the base mixture [2]: substantially insoluble
